Data set [1] concerns human Factor 11 mRNA. Put plainly: Dose-dependent inhibition of human Factor 11 in HepG2 cells, lipofectin 9.375-75 nM (Example 4). The following applies: for percent inhibition of Factor 11 at 9.375 nM / percent inhibition of Factor 11 at 18.75 nM / percent inhibition of Factor 11 at 37.5 nM / percent inhibition of Factor 11 at 75 nM: relative to untreated control cells. The data set is classed as cell-based. The method, boiled down:
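HepG2 cells transfected via lipofectin with antisense oligonucleotide at 9.375, 18.75, 37.5 or 75 nM for about 16 h. Factor 11 mRNA quantified by real-time RT-PCR (primer probe set RTS 2966) and normalized to total RNA (RIBOGREEN). Results expressed as percent inhibition versus untreated cells.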

In data set [2] the test system is human Factor 11 mRNA. In words: Antisense inhibition of human Factor 11 in HepG2 cells, electroporation, 8,000 nM (Example 30). Format: cell-based. The following applies: electroporation, 8,000 nM antisense oligonucleotide. The method, boiled down: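 HepG2 cells electroporated with 8,000 nM 5-10-5, 5-8-5 or 6-8-6 MOE gapmers (phosphorothioate, 5-methylcytidine), ~24 h. Factor 11 mRNA quantified by qRT-PCR, normalised to RIBOGREEN total RNA. Reported as percent inhibition versus untreated cells.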

The nature of data set [3]: Tolerability in CD1 mice: organ weight (Example 33). Format: in vivo. As to conditions: 50 mg/kg s.c. twice a week, vs PBS control, normalized to body weight. As for the experimental part: Three days after the last dose was administered to all groups, the mice were sacrificed.

Strand notation (5' to 3'): a small letter for the sugar, then the base; units joined by * are phosphorothioate-linked, units joined directly phosphodiester-linked; [ ] holds rarer units or linkages, { } end groups; capitals alone tell only the bases. e = 2'-O-(2-methoxyethyl) (MOE); [5mC] = 5-methylcytosine; d = 2'-deoxy (DNA)

As usually defined, the IC50 is the point on the concentration scale where inhibition reaches its midpoint. Take “412206 (antisense e[5mC]*e[5mC]*eG*eT*eG*d[5mC]*dA*dT*d[5mC]*dT*dT*dT*d[5mC]*dT*dT*eG*eG*e[5mC]*eA*eT) [compound 412206]”: in data set [1], it took 21 nM to reach half-maximal inhibition (IC50), the “percent inhibition of Factor 11 at 9.375 nM” value worked out at 24%, the “percent inhibition of Factor 11 at 18.75 nM” value is 47% and the “percent inhibition of Factor 11 at 37.5 nM” value turned out to be 69%. Further, the “percent inhibition of Factor 11 at 75 nM” value in data set [1] is 86%. The “Percent inhibition of human Factor 11 mRNA levels” value in data set [2] is on record as 91%.

For “445522 (antisense eG*e[5mC]*eA*e[5mC]*eA*dG*dT*dT*dT*d[5mC]*dT*dG*dG*e[5mC]*eA*eG*eG*e[5mC]) [compound 445522]”, the “Percent inhibition of human Factor 11 mRNA levels” value in data set [2] was determined as 91%.

Take “417002 (antisense GGTGCACAGTTTCTGGCAGG; 2-13-5 gapmer chemistry, further chemistry not given here) [compound 417002]”: in data set [1], the midpoint of inhibition, the IC50, lay at 19 nM; the “percent inhibition of Factor 11 at 9.375 nM” value is reported as 35%; the “percent inhibition of Factor 11 at 18.75 nM” value is on record as 52%; the “percent inhibition of Factor 11 at 37.5 nM” value turned out to be 67%. In addition, the “percent inhibition of Factor 11 at 75 nM” value in data set [1] is reported as 70%. Also, in data set [3] (2 weeks), the “Percent change in kidney weight” value is “+3%”, the “Percent change in liver weight” value is recorded as “+14%” and the “Percent change in spleen weight” value is recorded as “+29%”. For the same substance, in data set [3] (4 weeks), the “Percent change in kidney weight” value is −5%, the “Percent change in liver weight” value is “+8%” and the “Percent change in spleen weight” value is “+26%”. Besides, in data set [3] (6 weeks), the “Percent change in kidney weight” value is on record as −2%, the “Percent change in liver weight” value is listed as “+35%” and the “Percent change in spleen weight” value is given as “+108%”.

Turning to “416999 (antisense GCACAGTTTCTGGCAGGCCT; 2-13-5 gapmer chemistry, further chemistry not given here) [compound 416999]”, in data set [1], 30 nM corresponded to half-maximal inhibition (IC50), the “percent inhibition of Factor 11 at 9.375 nM” value was determined as 24%, the “percent inhibition of Factor 11 at 18.75 nM” value is listed as 37% and the “percent inhibition of Factor 11 at 37.5 nM” value amounted to 55%. Moreover, the “percent inhibition of Factor 11 at 75 nM” value in data set [1] was 73%. In data set [3] (2 weeks), the “Percent change in kidney weight” value is −9%, the “Percent change in liver weight” value was “+13%” and the “Percent change in spleen weight” value is listed as “+7%”. Besides, in data set [3] (4 weeks), the “Percent change in kidney weight” value is −6%, the “Percent change in liver weight” value is recorded as “+30%” and the “Percent change in spleen weight” value was “+22%”. Besides, in data set [3] (6 weeks), the “Percent change in kidney weight” value was −7%, the “Percent change in liver weight” value is recorded as “+47%” and the “Percent change in spleen weight” value is “+38%”.

As to “445531 (antisense eG*eG*e[5mC]*eA*eT*dT*dG*dG*dT*dG*d[5mC]*dA*d[5mC]*eA*eG*eT*eT*eT) [compound 445531]”, the “Percent inhibition of human Factor 11 mRNA levels” value in data set [2] stood at 90%.

With “416925 (antisense GGTGCACAGTTTCTGGCAGG; 3-14-3 gapmer chemistry, further chemistry not given here) [compound 416925]”, in data set [1], the IC50 was found to be 30 nM, the “percent inhibition of Factor 11 at 9.375 nM” value was 13%, the “percent inhibition of Factor 11 at 18.75 nM” value turned out to be 38% and the “percent inhibition of Factor 11 at 37.5 nM” value came to 59%. In data set [1], the “percent inhibition of Factor 11 at 75 nM” value was 75%. For the same substance, in data set [3] (2 weeks), the “Percent change in kidney weight” value is listed as −4%, the “Percent change in liver weight” value is given as “+14%” and the “Percent change in spleen weight” value is −7%. Also, in data set [3] (4 weeks), the “Percent change in kidney weight” value was −14%, the “Percent change in liver weight” value is listed as “+14%” and the “Percent change in spleen weight” value is on record as “+33%”. Moreover, in data set [3] (6 weeks), the “Percent change in kidney weight” value is −2%, the “Percent change in liver weight” value is on record as “+33%” and the “Percent change in spleen weight” value is “+78%”.

For the substance “416826 (antisense ATGCCCTTCATGTCTAGGTC; 5-10-5 gapmer, further chemistry not given here) [compound 416826]”, in data set [1], the 50% inhibitory concentration (IC50) worked out at 29 nM, the “percent inhibition of Factor 11 at 9.375 nM” value came out at 8%, the “percent inhibition of Factor 11 at 18.75 nM” value was determined as 36% and the “percent inhibition of Factor 11 at 37.5 nM” value is 58%. Moreover, the “percent inhibition of Factor 11 at 75 nM” value in data set [1] amounted to 84%. Moreover, in data set [3] (2 weeks), the “Percent change in kidney weight” value was −13%, the “Percent change in liver weight” value is “+10%” and the “Percent change in spleen weight” value is recorded as −12%. In addition, in data set [3] (4 weeks), the “Percent change in kidney weight” value is −7%, the “Percent change in liver weight” value is reported as “+32%” and the “Percent change in spleen weight” value was −5%. In data set [3] (6 weeks), the “Percent change in kidney weight” value is listed as −22%, the “Percent change in liver weight” value is on record as “+33%” and the “Percent change in spleen weight” value is recorded as “+22%”.

Take “412225 (antisense GCAGCGGACGGCATTGGTGC; 5-10-5 MOE gapmer, further chemistry not given here) [compound 412225]”: the “Percent inhibition of human Factor 11 mRNA levels” value in data set [2] came out at 86%.

For “416856 (antisense GGCATTGGTGCACAGTTTCT; 5-10-5 gapmer, further chemistry not given here) [compound 416856]”, in data set [1], the IC50 turned out to be 27 nM, the “percent inhibition of Factor 11 at 9.375 nM” value was 21%, the “percent inhibition of Factor 11 at 18.75 nM” value is 45% and the “percent inhibition of Factor 11 at 37.5 nM” value amounted to 58%. In addition, in data set [1], the “percent inhibition of Factor 11 at 75 nM” value worked out at 74%. Also, in data set [2], the “Percent inhibition of human Factor 11 mRNA levels” value turned out to be 84%.

On to “417003 (antisense TGGTGCACAGTTTCTGGCAG; 2-13-5 gapmer chemistry, further chemistry not given here) [compound 417003]”, for which, in data set [1], the IC50 was 33 nM, the “percent inhibition of Factor 11 at 9.375 nM” value is given as 26%, the “percent inhibition of Factor 11 at 18.75 nM” value is 44% and the “percent inhibition of Factor 11 at 37.5 nM” value was determined as 60%. Further, in data set [1], the “percent inhibition of Factor 11 at 75 nM” value amounted to 56%. For the same substance, in data set [3] (2 weeks), the “Percent change in kidney weight” value is −9%, the “Percent change in liver weight” value is listed as “+8%” and the “Percent change in spleen weight” value is “+12%”. Further, in data set [3] (4 weeks), the “Percent change in kidney weight” value is on record as −2%, the “Percent change in liver weight” value was “+42%” and the “Percent change in spleen weight” value is listed as “+101%”. For the same substance, in data set [3] (6 weeks), the “Percent change in kidney weight” value was −1%, the “Percent change in liver weight” value was “+32%” and the “Percent change in spleen weight” value is “+98%”.

On to “413482 (antisense GGACGGCATTGGTGCACAGT; 5-10-5 MOE gapmer, further chemistry not given here) [compound 413482]”, for which, in data set [2], the “Percent inhibition of human Factor 11 mRNA levels” value is reported as 88%.

For “412223 (antisense ACAGTTTCTGGCAGGCCTCG; 5-10-5 MOE gapmer, further chemistry not given here) [compound 412223]”, the “Percent inhibition of human Factor 11 mRNA levels” value in data set [2] was found to be 62%.

Take “416838 (antisense GCAACCGGGATGATGAGTGC; 5-10-5 gapmer, further chemistry not given here) [compound 416838]”: in data set [1], the IC50 is 19 nM, the “percent inhibition of Factor 11 at 9.375 nM” value is given as 31%, the “percent inhibition of Factor 11 at 18.75 nM” value amounted to 51% and the “percent inhibition of Factor 11 at 37.5 nM” value worked out at 64%. The “percent inhibition of Factor 11 at 75 nM” value in data set [1] is 86%. In data set [3] (2 weeks), the “Percent change in kidney weight” value is listed as −2%, the “Percent change in liver weight” value was “+8%” and the “Percent change in spleen weight” value was “+21%”. Moreover, in data set [3] (4 weeks), the “Percent change in kidney weight” value was −12%, the “Percent change in liver weight” value is −6% and the “Percent change in spleen weight” value is −8%. For the same substance, in data set [3] (6 weeks), the “Percent change in kidney weight” value is listed as −8%, the “Percent change in liver weight” value stood at 0% and the “Percent change in spleen weight” value is on record as “+9%”.

In the case of “416892 (antisense GCCCTTCATGTCTAGGTCCA; 3-14-3 chimeric gapmer, further chemistry not given here) [compound 416892]”, in data set [1], the IC50 was found to be 23 nM, the “percent inhibition of Factor 11 at 9.375 nM” value was determined as 16%, the “percent inhibition of Factor 11 at 18.75 nM” value is reported as 50% and the “percent inhibition of Factor 11 at 37.5 nM” value came to 70%. Moreover, the “percent inhibition of Factor 11 at 75 nM” value in data set [1] is given as 85%. Also, in data set [3] (2 weeks), the “Percent change in kidney weight” value is “+2%”, the “Percent change in liver weight” value is “+35%” and the “Percent change in spleen weight” value is “+24%”. In data set [3] (4 weeks), the “Percent change in kidney weight” value is on record as −3%, the “Percent change in liver weight” value is “+88%” and the “Percent change in spleen weight” value is on record as “+30%”. In data set [3] (6 weeks), the “Percent change in kidney weight” value is given as “+19%”, the “Percent change in liver weight” value was “+95%” and the “Percent change in spleen weight” value is given as “+65%”.

In the case of “412224 (antisense GCATTGGTGCACAGTTTCTG; 5-10-5 MOE gapmer, further chemistry not given here) [compound 412224]”, in data set [2], the “Percent inhibition of human Factor 11 mRNA levels” value is listed as 84%.

The values above are taken from patent publication US20230263822A1, “MODULATION OF FACTOR 11 EXPRESSION” (Ionis Pharmaceuticals, Inc., priority 2008, published 2023).
